Where two headings read alike, the source gives them in different places.
What was measured:
Format in all cases: cell-based
SK-BR-3 = assay: Inhibition of proliferation of cells SK-BR-3 (CelltiterGlo, 72 h)
Method: (§1) • (1) Cell plating: first, tumor cells SK-BR-3 were cultured using a corresponding culture medium, trypsinized, centrifuged, resuspended for counting, adjusted to an appropriate concentration, and then plated on a 384-well plate. • (2) Co-incubation of the compounds and tumor cells: after the cells adhered to the wall, 100 nL of a diluted bioactive substance (test compound) was added to the cell culture plate using ECHO, the final concentration of DMSO in wells of the cell plate was 0.33%, and the incubation was performed in an incubator at 37° C. with 5% CO2 for 72 h. • (3) After the incubation was complete, 30 μL of a CTG reagent (CelltiterGlo kit) was added to each well. The culture was oscillated on a fast oscillator for 2 min, centrifuged at 1,000 rpm for 1 min, and kept away from light at room temperature for 30 min. The chemiluminescence signal value was read using an Envision instrument. • (4) Cell viability detection: IC50 was calculated using GraphPad Prism 8 software, and the IC50 of the compounds was obtained using the following nonlinear fitting formula (see Table 1):
[formula] • Y: inhibition rate; X: log value of compound concentration-,
(§2) [formula] • high-reading control wells: cells with addition of 100 nL DMSO; and • low-reading control wells: cell-free wells.

MDA-MB-468 = assay: Inhibition of proliferation of cells MDA-MB-468 (CelltiterGlo, 72 h)
Method: as §1, with “MDA-MB-468” for “SK-BR-3”, “[…]” for “5%”, “2):” for “1):”
[formula] • Y: inhibition rate: X: log value of compound concentration;
as §2

NCI-N87 = assay: Inhibition of proliferation of cells NCI-N87 (CelltiterGlo, 72 h)
Method: as §1, with “NCI-N87” for “SK-BR-3”, “[…]” for “5%”, “3):” for “1):”
[formula] • Y: inhibition rate, X: log value of compound concentration;
as §2

[1] = Homo sapiens, SK-BR-3, 72 h, read-out: IC50 (nM), antiproliferative activity on SK-BR-3, SK-BR-3 cells, 72 h, CTG
[2] = Homo sapiens, MDA-MB-468, 72 h, read-out: IC50 (nM), antiproliferative activity on MDA-MB-468, MDA-MB-468 cells, 72 h, CTG
[3] = Homo sapiens, NCI-N87, 72 h, read-out: IC50 (nM), antiproliferative activity on cells NCI-N87, NCI-N87 cells, 72 h, CTG
[4] = MDA-MB-468 cells, 72 h, CTG, read-out: IC50 (nM), antiproliferative activity on MDA-MB-468
[5] = NCI-N87 cells, 72 h, CTG, read-out: IC50 (nM), antiproliferative activity on cells NCI-N87

Molecule	IC50 (SK-BR-3; [1])	IC50 (MDA-MB-468; [2])	IC50 (NCI-N87; [3])	IC50 (MDA-MB-468; [4])	IC50 (NCI-N87; [5])	further results
CC[C@@]1(O)C(=O)OCc2c1cc1n(c2=O)Cc2c-1nc1cc(F)c(C)c3c1c2[C@@H](NC(=O)[C@H]1C[C@@H](O)C1)CCC3 [Compound 10, (1S,3R)—N-((1S,10S)-10-ethyl-6-fluoro-10-hydroxy-5-methyl-11,14-dioxo-1,2,3,4,10,11,14,16-octahydro-13H-cyclohepta[de]pyrano[3′,4′:6,7]indolizino[1,2-b]quinolin-1-yl)-3-hydroxycyclobutane-1-carboxamide]	10 nM	13 nM	23 nM	–	–	–
CC[C@@]1(O)C(=O)OCc2c1cc1n(c2=O)Cc2c-1nc1cc(F)c(C)c3c1c2[C@@H](NC(=O)[C@H](O)C1CC1)CCC3 [Compound 11-1, (R)-2-cyclopropyl-N-((1S,10S)-10-ethyl-6-fluoro-10-hydroxy-5-methyl-11,14-dioxo-1,2,3,4,10,11,14,16-octahydro-13H-cyclohepta[de]pyrano[3′,4′:6,7]indolizino[1,2-b]quinolin-1-yl)-2-hydroxyacetamide]	–	–	–	–	–	IC50 (SK-BR-3; Homo sapiens, SK-BR-3 cells, 72 h, CTG, read-out: IC50 (nM), antiproliferative activity on SK-BR-3): 2.2 nM; IC50 (MDA-MB-468; Homo sapiens, MDA-MB-468 cells, 72 h, CTG, read-out: IC50 (nM), antiproliferative activity on MDA-MB-468): 3.9 nM; IC50 (NCI-N87; Homo sapiens, NCI-N87 cells, 72 h, CTG, read-out: IC50 (nM), antiproliferative activity on cells NCI-N87): 2.5 nM
C=Cc1c(F)cc2nc3c(c4c2c1CC[C@@H]4NC(=O)[C@H]1C[C@@H](O)C1)Cn1c-3cc2c(c1=O)COC(=O)[C@]2(O)CC [Compound 12, (1S,3R)—N-((1S,9S)-9-ethyl-5-fluoro-9-hydroxy-10,13-dioxo-4-ethenyl-2,3,9,10,13,15-hexahydro-1H,12H-benzo[d]pyrano[3′,4′:6,7]indolizino[1,2-b]quinolin-1-yl)-3-hydroxycyclobutane-1-carboxamide]	5.7 nM	9.3 nM	20 nM	–	–	–
CC[C@@]1(O)C(=O)OCc2c1cc1n(c2=O)Cc2c-1nc1cc(F)c(C3CC3)c3c1c2C(NC(=O)[C@H]1C[C@@H](O)C1)CC3 (stereo partly drawn) [Compound 18-1, (1S,3S)—N-((1R,9S)-4-cyclopropyl-9-ethyl-5-fluoro-9-hydroxy-10,13-dioxo-2,3,9,10,13,15-hexahydro-1H,12H-benzo[d]pyrano[3′,4′:6,7]indolizino[1,2-b]quinolin-1-yl)-3-hydroxycyclobutane-1-carboxamide]	13.8 nM	–	11.2 nM	–	–	–
CC[C@@]1(O)C(=O)OCc2c1cc1n(c2=O)Cc2c-1nc1cc(F)c(C3CC3)c3c1c2[C@@H](NC(=O)[C@H](O)C1CC1)CCC3 [Compound 33-1, (R)-2-cyclopropyl-N-((1S,10S)-5-cyclopropyl-10-ethyl-6-fluoro-10-hydroxy-11,14-dioxo-1,2,3,4,10,11,14,16-octahydro-13H-cyclohepta[3′,4′:6,7]indolizino[1,2-b]quinolin-1-yl)-2-hydroxyacetamide]	–	–	–	6 nM	8 nM	–
CC[C@@]1(O)C(=O)OCc2c1cc1n(c2=O)Cc2c-1nc1cc(F)c(C3CC3)c3c1c2[C@@H](NC(=O)[C@@H](O)C1CC1)CCC3 [Compound 33-2, (S)-2-cyclopropyl-N-((1S,10S)-5-cyclopropyl-10-ethyl-6-fluoro-10-hydroxy-11,14-dioxo-1,2,3,4,10,11,14,16-octahydro-13H-cyclohepta[3′,4′:6,7]indolizino[1,2-b]quinolin-1-yl)-2-hydroxyacetamide]	–	–	–	5 nM	9 nM	–
CC[C@@]1(O)C(=O)OCc2c1cc1n(c2=O)Cc2c-1nc1cc(F)c(C3CC3)c3c1c2[C@@H](NC(=O)C[C@H](O)C1CC1)CC3 [Compound 34-1, (S)-3-cyclopropyl-N-((1S,9S)-4-cyclopropyl-9-ethyl-5-fluoro-9-hydroxy-10,13-dioxo-2,3,9,10,13,15-hexahydro-1H,12H-benzo[d]pyrano[3′,4′:6,7]indolizino[1,2-b]quinolin-1-yl)-3-hydroxypropanamide]	–	–	–	4 nM	6 nM	–
CC[C@@]1(O)C(=O)OCc2c1cc1n(c2=O)Cc2c-1nc1cc(F)c(C3CC3)c3c1c2[C@@H](NC(=O)C[C@@H](O)C1CC1)CC3 [Compound 34-2, (R)-3-cyclopropyl-N-((1S,9S)-4-cyclopropyl-9-ethyl-5-fluoro-9-hydroxy-10,13-dioxo-2,3,9,10,13,15-hexahydro-1H,12H-benzo[d]pyrano[3′,4′:6,7]indolizino[1,2-b]quinolin-1-yl)-3-hydroxypropanamide]	4.8 nM	4 nM	6 nM	–	–	–
CC[C@@]1(O)C(=O)OCc2c1cc1n(c2=O)Cc2c-1nc1cc(F)c(C)c3c1c2[C@@H](NC(=O)[C@@H](C)[C@@H](C)O)CCC3 [Compound 39, (2S,3R)—N-((1S,10S)-10-ethyl-6-fluoro-10-hydroxy-5-methyl-11,14-dioxo-1,2,3,4,10,11,14,16-octahydro-13H-cyclohepta[3′,4′:6,7]indolizino[1,2-b]quinolin-1-yl)-3-hydroxy-2-methylbutanamide]	11 nM	15 nM	9.3 nM	–	–	–
(1S,3S)—N-((1R,10S)-5-cyclopropyl-10-ethyl-6-fluoro-10-hydroxy-11,14-dioxo-1,2,3,4,10,11,14,16-octahydro-13H-cyclohepta[de]pyrano[3′,4′:6,7]indolizino[1,2-b]quinolin-1-yl)-3-hydroxybutane-1-carboxamide [Compound 20-1]	–	–	–	15.6 nM	26 nM	IC50 (SK-BR-3; SK-BR-3 cells, 72 h, CTG, read-out: IC50 (nM), antiproliferative activity on SK-BR-3): 21 nM
(S)—N-((1S,10S)-10-ethyl-6-fluoro-10-hydroxy-5-methyl-11,14-dioxo-1,2,3,4,10,11,14,16-octahydro-13H-cyclohepta[3′,4′:6,7]indolizino[1,2-b]quinolin-1-yl)-3-hydroxy-4-methylpentanamide [Compound 37-1]	–	–	–	19 nM	–	–
